What was measured:
[1] = test system: collagen type I alpha 1 (COL1A1); assay: Gene expression in adipose tissue of mice after Tempol administration, Affymetrix MOE430A 2.0 array; format: in vivo
Method: (§1) In a further gene expression study, Tempol was administered to experimental mice at a dose of 5 g/kg of diet from 12 months through 15 months. Mice receiving the same diet without the addition of Tempol were used as a negative control. At the age of 15 months, the adipose tissue of the experimental animals was obtained. The expression of a broad spectrum of genes in the adipose tissue was assessed using chip-based microarray technology. Specifically, in this case an Affymetrix MOE430A 2.0 array, containing 12,960 genes, was employed. Such chips are well known in the art and are widely used to assess gene expression.

[2] = test system: complement component 6 (C6); assay: as above; format: in vivo
Method: as §1

[3] = test system: glucocorticoid-induced leucine zipper; assay: Protein level in circulating monocytes of patient after Tempol treatment; format: in vivo, human
Method: (§2) A 70-kilogram patient diagnosed with an autoimmune disease is administered a dose of 1500 mg of Tempol per day for 180 days. This may be administered in a single dose, or may be administered as a number of smaller doses over a 24-hour period: for example, three 500-mg doses at eight-hour intervals. Following treatment, the protein level of glucocorticoid-induced leucine zipper in circulating monocytes is increased, and the protein levels of complement component 6 in plasma and of collagen type 1 A1 in fibroblasts is reduced.
as §2, with “patient” for “patient diagnosed with an autoimmune disease”, “days prior to receiving an organ transplant.” for “days.”

[4] = test system: glucocorticoid-induced leucine zipper (GILZ); assay: Gene expression in cardiac tissue of mice after Tempol administration, chip-based microarray; format: in vivo
Method: To assess the effects of Tempol on gene expression, Tempol was administered to experimental mice at a dose of 5 mg/g of food from 14 months to 31 months after birth. Mice receiving the same food without the addition of Tempol were used as a negative control. At the age of 31 months, the experimental animals were sacrificed and the hearts were surgically removed. The expression of a broad spectrum of genes in the cardiac tissue was assessed using chip-based microarray technology. Such chips are well known in the art and are widely used to assess gene expression.

complement component 6 = assay: Protein level in plasma of patient after Tempol treatment; format: in vivo, human
Method: as §2
as §2, with “patient” for “patient diagnosed with an autoimmune disease”, “days prior to receiving an organ transplant.” for “days.”

collagen type 1 A1 = assay: Protein level in fibroblasts of patient after Tempol treatment; format: in vivo, human
Method: as §2
as §2, with “patient” for “patient diagnosed with an autoimmune disease”, “days prior to receiving an organ transplant.” for “days.”

[5] = 5 g/kg of diet from 12 through 15 months, microarray signal
[6] = Example 1: patient with autoimmune disease, 1500 mg per day for 180 days
[7] = Example 2: 1500 mg per day for 180 days prior to organ transplant

## CC1(C)CC(O)CC(C)(C)N1[O] [Tempol, 4-hydroxy-2,2,6,6-tetramethylpiperidine-1-oxyl]
[1]; [5]
  COL1A1 expression, Mean (Tempol-treated mice): 1688
[1]; Tempol-treated vs control mice
  COL1A1 Fold change: −1.28
[2]; [5]
  C6 expression, Mean (Tempol-treated mice): 337
[2]; Tempol-treated vs control mice
  C6 Fold change: −1.85
  C6 expression decrease: decrease in expression
[3]; [6]
  protein level of glucocorticoid-induced leucine zipper in circulating monocytes: increased
[3]; [7]
  protein level of glucocorticoid-induced leucine zipper in circulating monocytes: increased
[4]; TEMPOL-treated vs control mice, upregulated gene
  GILZ Fold change: 2.3
[4]; mouse tp51, 5 mg/g of food from 14 to 31 months, microarray signal
  GILZ (AA097711) expression, TEMPOL-treated mice tp51: 83
[4]; mouse tp52, 5 mg/g of food from 14 to 31 months, microarray signal
  GILZ (AA097711) expression, TEMPOL-treated mice tp52: 33
[4]; mouse tp53, 5 mg/g of food from 14 to 31 months, microarray signal
  GILZ (AA097711) expression, TEMPOL-treated mice tp53: 4
Complement component 6; [6]
  protein level of complement component 6 in plasma: reduced
Complement component 6; [7]
  protein level of complement component 6 in plasma: reduced
Collagen type 1 A1; [6]
  protein level of collagen type 1 A1 in fibroblasts: reduced
Collagen type 1 A1; [7]
  protein level of collagen type 1 A1 in fibroblasts: reduced

— US20090209581A1, “NITROXIDES FOR USE IN TREATING OR PREVENTING IMMUNOLOGICAL DISEASES” (priority 2005, published 2009)
